Measured values from patent US11952363B2, “Piperazine compounds for the treatment of autoimmune disease” (Hoffmann-La Roche Inc., priority 2018, dated 2024).

Key:
[1] = target: T1, human TLR7 (Homo sapiens, UniProt Q9NYK1); experiment: HEK293-Blue-hTLR-7 cells assay (SEAP reporter, R848 stimulation); type: cell-based; details: HEK293-Blue-hTLR7 cells, R848 ligand, 20 hrs incubation; read-out: HEK/hTLR7 IC50
T1 sequence (Q9NYK1 27-1049): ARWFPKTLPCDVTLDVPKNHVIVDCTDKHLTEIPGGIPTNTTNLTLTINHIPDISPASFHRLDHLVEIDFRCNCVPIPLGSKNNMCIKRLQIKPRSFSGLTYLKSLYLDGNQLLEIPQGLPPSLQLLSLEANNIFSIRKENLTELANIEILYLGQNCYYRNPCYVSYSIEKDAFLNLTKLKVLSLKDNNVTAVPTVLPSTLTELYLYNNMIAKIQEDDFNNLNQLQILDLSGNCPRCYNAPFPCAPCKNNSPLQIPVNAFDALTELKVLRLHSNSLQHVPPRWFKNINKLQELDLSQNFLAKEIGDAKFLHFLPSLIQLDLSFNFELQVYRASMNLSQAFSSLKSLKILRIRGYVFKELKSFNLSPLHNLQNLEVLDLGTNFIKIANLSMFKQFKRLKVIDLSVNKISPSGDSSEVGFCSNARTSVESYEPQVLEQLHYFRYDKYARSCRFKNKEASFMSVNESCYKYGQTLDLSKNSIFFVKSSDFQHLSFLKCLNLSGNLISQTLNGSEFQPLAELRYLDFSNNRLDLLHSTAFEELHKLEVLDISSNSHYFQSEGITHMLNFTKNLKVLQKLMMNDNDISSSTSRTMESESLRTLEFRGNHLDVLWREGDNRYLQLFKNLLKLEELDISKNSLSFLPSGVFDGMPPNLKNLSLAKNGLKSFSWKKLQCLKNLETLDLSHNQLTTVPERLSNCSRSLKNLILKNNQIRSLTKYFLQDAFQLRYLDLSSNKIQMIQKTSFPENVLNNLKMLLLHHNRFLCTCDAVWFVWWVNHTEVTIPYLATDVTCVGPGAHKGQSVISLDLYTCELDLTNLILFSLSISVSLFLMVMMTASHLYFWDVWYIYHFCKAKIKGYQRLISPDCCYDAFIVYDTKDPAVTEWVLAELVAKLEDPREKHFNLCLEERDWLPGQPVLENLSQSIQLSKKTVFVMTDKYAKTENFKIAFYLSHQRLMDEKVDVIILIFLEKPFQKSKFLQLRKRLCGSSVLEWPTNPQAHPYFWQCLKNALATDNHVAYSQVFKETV
Procedure: The following tests were carried out in order to determine the activity of the compounds of formula (I) in HEK293-Blue-hTLR-7/8/9 cells assay.
A stable HEK293-Blue-hTLR-7 cell line was purchased from InvivoGen (Cat.#: hkb-htlr7, San Diego, California, USA). These cells were originally designed for studying the stimulation of human TLR7 by monitoring the activation of NF-κB. A SEAP (secreted embryonic alkaline phosphatase) reporter gene was placed under the control of the IFN-β minimal promoter fused to five NF-κB and AP-1-binding sites. The SEAP was induced by activating NF-κB and AP-1 via stimulating HEK-Blue hTLR7 cells with TLR7 ligands. Therefore the reporter expression was declined by TLR7 antagonist under the stimulation of a ligand, such as R848 (Resiquimod), for incubation of 20 hrs. The cell culture supernatant SEAP reporter activity was determined using QUANTI-Blue™ kit (Cat.#: rep-qb1, Invivogen, San Diego, Ca, USA) at a wavelength of 640 nm, a detection medium that turns purple or blue in the presence of alkaline phosphatase.
HEK293-Blue-hTLR7 cells were incubated at a density of 250,000˜450,000 cells/mL in a volume of 170 μL in a 96-well plate in Dulbecco's Modified Eagle's medium (DMEM) containing 4.5 g/L glucose, 50 U/mL penicillin, […], […], 2 mM L-glutamine, 10% (v/v) heat-inactivated fetal bovine serum with addition of 20 μL test compound in a serial dilution in the presence of final DMSO at 1% and 10 μL of 20 uM R848 in above DMEM, perform incubation under 37° C. in a CO2 incubator for 20 hrs. Then 20 μL of the supernatant from each well was incubated with […] Quanti-blue substrate solution at 37° C. for 2 hrs and the absorbance was read at 620-655 nm using a spectrophotometer. The signalling pathway that TLR7 activation leads to downstream NF-κB activation has been widely accepted, and therefore similar reporter assay was modified for evaluating TLR7 antagonist.

[2] = target: T2, hERG (Homo sapiens, UniProt Q12809); experiment: hERG channel inhibition assay (patch-clamp, CHO hERG cells); type: cell-based
T2 construct: expressed in transfected cells
T2 sequence (Q12809 whole entry): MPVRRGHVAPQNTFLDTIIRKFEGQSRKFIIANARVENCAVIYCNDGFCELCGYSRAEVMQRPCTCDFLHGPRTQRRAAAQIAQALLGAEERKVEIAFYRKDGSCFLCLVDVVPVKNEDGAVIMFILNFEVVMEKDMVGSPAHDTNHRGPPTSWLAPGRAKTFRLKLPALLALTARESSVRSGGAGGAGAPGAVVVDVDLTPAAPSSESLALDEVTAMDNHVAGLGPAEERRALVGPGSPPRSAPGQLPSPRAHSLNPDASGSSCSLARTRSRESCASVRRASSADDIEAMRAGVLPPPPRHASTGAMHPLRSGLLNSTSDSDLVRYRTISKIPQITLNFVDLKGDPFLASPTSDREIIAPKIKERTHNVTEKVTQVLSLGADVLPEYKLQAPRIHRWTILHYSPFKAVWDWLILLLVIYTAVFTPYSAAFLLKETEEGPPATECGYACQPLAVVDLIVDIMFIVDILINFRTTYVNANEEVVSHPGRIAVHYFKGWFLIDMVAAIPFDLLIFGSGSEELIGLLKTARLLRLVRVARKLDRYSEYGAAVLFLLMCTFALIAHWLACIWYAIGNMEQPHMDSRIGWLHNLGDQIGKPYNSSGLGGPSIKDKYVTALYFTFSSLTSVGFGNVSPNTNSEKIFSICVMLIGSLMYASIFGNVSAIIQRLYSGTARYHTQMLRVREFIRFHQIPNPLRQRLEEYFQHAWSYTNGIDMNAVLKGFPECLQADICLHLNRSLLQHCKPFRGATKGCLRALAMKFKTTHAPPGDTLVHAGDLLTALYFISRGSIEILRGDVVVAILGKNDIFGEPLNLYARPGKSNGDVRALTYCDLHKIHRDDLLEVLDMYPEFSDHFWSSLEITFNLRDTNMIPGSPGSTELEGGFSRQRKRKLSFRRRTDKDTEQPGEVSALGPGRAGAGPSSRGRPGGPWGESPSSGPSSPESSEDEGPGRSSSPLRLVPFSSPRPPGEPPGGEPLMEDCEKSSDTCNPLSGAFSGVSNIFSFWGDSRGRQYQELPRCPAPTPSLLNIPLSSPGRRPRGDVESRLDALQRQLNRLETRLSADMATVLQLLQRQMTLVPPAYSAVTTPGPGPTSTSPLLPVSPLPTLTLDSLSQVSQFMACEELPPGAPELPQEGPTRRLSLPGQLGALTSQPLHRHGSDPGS
Procedure: The hERG K^+ channels were cloned in humans and stably expressed in a CHO (Chinese hamster ovary) cell line. CHOhERG cells were used for patch-clamp (voltage-clamp, whole-cell) experiments. Cells were stimulated by a voltage pattern to activate hERG channels and conduct I KhERG currents (rapid delayed outward rectifier potassium current of the hERG channel). After the cells were stabilized for a few minutes, the amplitude and kinetics of I KhERG were recorded at a stimulation frequency of 0.1 Hz (6 bpm). Thereafter, the test compound was added to the preparation at increasing concentrations. For each concentration, an attempt was made to reach a steady-state effect, usually, this was achieved within 3-10 min at which time the next highest concentration was applied. The amplitude and kinetics of IKhERG are recorded in each concentration of the drug which were compared to the control values (taken as 100%). […]

[3] = safety ratio, >30 suggests sufficient window

C[C@@H]1CN(c2ccc(C#N)c3ncccc23)C[C@H](C)N1CC(=O)N1Cc2ccc(N3CCNCC3)cc2C1 [Example 16, 5-[(3R,5S)-3,5-Dimethyl-4-[2-oxo-2-(5-piperazin-1-ylisoindolin-2-yl)ethyl]piperazin-1-yl]quinoline-8-carbonitrile]
IC50 [1]: 0.035 µM | IC50 ([2]; CHO hERG cells, whole-cell patch-clamp): > 20 µM | IC20 ([2]; human, CHO cells stably expressing hERG, CHO hERG cells, whole-cell patch-clamp): > 10 µM | hERG IC20/TLR7 IC50 [2, 3]: >289 | hERG IC20/TLR8 IC50 [2, 3]: >182 | hERG IC20/TLR9 IC50 [2, 3]: >134
